Test results taken from the supplement of paper PMC13380429.

Experiments:
Details in all cases: 72 h
Caco-2 [1] = experiment: cell viability relative to DMSO; higher = less toxic
Calu-3 [2] = experiment: as above
HepG2 [3] = experiment: as above
Vero E6 [4] = experiment: as above
Caco-2 [5] = experiment: relative viability EC50 (midpoint between 100% and the lowest measured viability); higher = less toxic
Calu-3 [6] = experiment: as above
HepG2 [7] = experiment: as above
Vero E6 [8] = experiment: as above
Caco-2 [9] = experiment: drug sensitivity score (DSS) for viability; higher = more toxic; extreme values may be limits of the assay
Calu-3 [10] = experiment: as above
HepG2 [11] = experiment: as above
Vero E6 [12] = experiment: as above
U2OS [13] = experiment: cell viability relative to DMSO; higher = less toxic
U2OS [14] = experiment: relative viability EC50 (midpoint between 100% and the lowest measured viability); higher = less toxic
U2OS [15] = experiment: drug sensitivity score (DSS) for viability; higher = more toxic; extreme values may be limits of the assay

CCNC(=O)[C@H]1O[C@@H](n2cnc3c(N)nc(NCCc4ccc(CCC(=O)O)cc4)nc32)[C@H](O)[C@@H]1O
cell viability (Caco-2 [1]; 1 nM): 99.1% | cell viability (Caco-2 [1]; 10 nM): 101% | cell viability (Caco-2 [1]; 100 nM): 92.1% | cell viability (Caco-2 [1]; 1000 nM): 96.4% | cell viability (Caco-2 [1]; 10000 nM): 97.3% | cell viability (Calu-3 [2]; 1 nM): 95.7% | cell viability (Calu-3 [2]; 10 nM): 99.2% | cell viability (Calu-3 [2]; 100 nM): 99.5% | cell viability (Calu-3 [2]; 1000 nM): 113% | cell viability (Calu-3 [2]; 10000 nM): 98.9% | cell viability (HepG2 [3]; 1 nM): 96.2% | cell viability (HepG2 [3]; 10 nM): 102% | cell viability (HepG2 [3]; 100 nM): 116% | cell viability (HepG2 [3]; 1000 nM): 97% | cell viability (HepG2 [3]; 10000 nM): 96.7% | cell viability (Vero E6 [4]; 1 nM): 104% | cell viability (Vero E6 [4]; 10 nM): 109% | cell viability (Vero E6 [4]; 100 nM): 98.8% | cell viability (Vero E6 [4]; 1000 nM): 97.9% | cell viability (Vero E6 [4]; 10000 nM): 95.8% | relative viability EC50 (Caco-2 [5]): > 10 µM | relative viability EC50 (Calu-3 [6]): > 10 µM | relative viability EC50 (HepG2 [7]): > 10 µM | relative viability EC50 (Vero E6 [8]): > 10 µM | drug sensitivity score (Caco-2 [9]): 0 | drug sensitivity score (Calu-3 [10]): 0 | drug sensitivity score (HepG2 [11]): 0 | drug sensitivity score (Vero E6 [12]): 0

COc1ccc(-c2nc(C(=O)N3CCN(C)CC3)sc2-c2ccc(OC)cc2)cc1
cell viability (Caco-2 [1]; 1 nM): 99.2% | cell viability (Caco-2 [1]; 10 nM): 94.6% | cell viability (Caco-2 [1]; 100 nM): 108% | cell viability (Caco-2 [1]; 1000 nM): 102% | cell viability (Caco-2 [1]; 10000 nM): 102% | cell viability (Calu-3 [2]; 1 nM): 97.5% | cell viability (Calu-3 [2]; 10 nM): 101% | cell viability (Calu-3 [2]; 100 nM): 99.7% | cell viability (Calu-3 [2]; 1000 nM): 109% | cell viability (Calu-3 [2]; 10000 nM): 106% | cell viability (HepG2 [3]; 1 nM): 98.7% | cell viability (HepG2 [3]; 10 nM): 95.7% | cell viability (HepG2 [3]; 100 nM): 104% | cell viability (HepG2 [3]; 1000 nM): 107% | cell viability (HepG2 [3]; 10000 nM): 98.5% | cell viability (Vero E6 [4]; 1 nM): 107% | cell viability (Vero E6 [4]; 10 nM): 104% | cell viability (Vero E6 [4]; 100 nM): 102% | cell viability (Vero E6 [4]; 1000 nM): 103% | cell viability (Vero E6 [4]; 10000 nM): 95.6% | relative viability EC50 (Caco-2 [5]): > 10 µM | relative viability EC50 (Calu-3 [6]): > 10 µM | relative viability EC50 (HepG2 [7]): > 10 µM | relative viability EC50 (Vero E6 [8]): > 10 µM | drug sensitivity score (Caco-2 [9]): 0 | drug sensitivity score (Calu-3 [10]): 0 | drug sensitivity score (HepG2 [11]): 0 | drug sensitivity score (Vero E6 [12]): 0

C[C@H](NC(=O)[C@@H](O)c1cc(F)cc(F)c1)C(=O)N[C@@H]1C(=O)N(C)c2ccccc2-c2ccccc21
cell viability (Caco-2 [1]; 1 nM): 101% | cell viability (Caco-2 [1]; 10 nM): 89.2% | cell viability (Caco-2 [1]; 100 nM): 101% | cell viability (Caco-2 [1]; 1000 nM): 86% | cell viability (Caco-2 [1]; 10000 nM): 91.3% | cell viability (Calu-3 [2]; 1 nM): 98% | cell viability (Calu-3 [2]; 10 nM): 87.7% | cell viability (Calu-3 [2]; 100 nM): 97.9% | cell viability (Calu-3 [2]; 1000 nM): 101% | cell viability (Calu-3 [2]; 10000 nM): 100% | cell viability (HepG2 [3]; 1 nM): 97.1% | cell viability (HepG2 [3]; 10 nM): 95.6% | cell viability (HepG2 [3]; 100 nM): 102% | cell viability (HepG2 [3]; 1000 nM): 101% | cell viability (HepG2 [3]; 10000 nM): 88.2% | cell viability (U2OS [13]; 1 nM): 96% | cell viability (U2OS [13]; 10 nM): 93.9% | cell viability (U2OS [13]; 100 nM): 94% | cell viability (U2OS [13]; 1000 nM): 93% | cell viability (U2OS [13]; 10000 nM): 94.7% | relative viability EC50 (Caco-2 [5]): > 10 µM | relative viability EC50 (Calu-3 [6]): > 10 µM | relative viability EC50 (HepG2 [7]): > 10 µM | relative viability EC50 (U2OS [14]): > 10 µM | drug sensitivity score (Caco-2 [9]): 0 | drug sensitivity score (Calu-3 [10]): 0 | drug sensitivity score (HepG2 [11]): 0 | drug sensitivity score (U2OS [15]): 0

Cc1ccc(/C=C2\CNC/C(=C\c3ccc(C)cc3)C2=O)cc1
cell viability (Caco-2 [1]; 1 nM): 103% | cell viability (Caco-2 [1]; 10 nM): 98.6% | cell viability (Caco-2 [1]; 100 nM): 94% | cell viability (Caco-2 [1]; 1000 nM): 94.1% | cell viability (Caco-2 [1]; 10000 nM): 38.8% | cell viability (Calu-3 [2]; 1 nM): 92.7% | cell viability (Calu-3 [2]; 10 nM): 112% | cell viability (Calu-3 [2]; 100 nM): 105% | cell viability (Calu-3 [2]; 1000 nM): 104% | cell viability (Calu-3 [2]; 10000 nM): 79% | cell viability (HepG2 [3]; 1 nM): 119% | cell viability (HepG2 [3]; 10 nM): 99.2% | cell viability (HepG2 [3]; 100 nM): 110% | cell viability (HepG2 [3]; 1000 nM): 101% | cell viability (HepG2 [3]; 10000 nM): 12.4% | cell viability (U2OS [13]; 1 nM): 105% | cell viability (U2OS [13]; 10 nM): 106% | cell viability (U2OS [13]; 100 nM): 101% | cell viability (U2OS [13]; 1000 nM): 98% | cell viability (U2OS [13]; 10000 nM): 13.4% | cell viability (Vero E6 [4]; 1 nM): 101% | cell viability (Vero E6 [4]; 10 nM): 97.9% | cell viability (Vero E6 [4]; 100 nM): 104% | cell viability (Vero E6 [4]; 1000 nM): 103% | cell viability (Vero E6 [4]; 10000 nM): 50.2% | relative viability EC50 (Caco-2 [5]): 2.36 µM | relative viability EC50 (Calu-3 [6]): > 10 µM | relative viability EC50 (HepG2 [7]): 3.24 µM | relative viability EC50 (U2OS [14]): 3 µM | drug sensitivity score (Caco-2 [9]): 4.3 | drug sensitivity score (Calu-3 [10]): 0.5 | drug sensitivity score (HepG2 [11]): 4.8 | drug sensitivity score (U2OS [15]): 5.1 | drug sensitivity score (Vero E6 [12]): 2.4

Cc1ccc2c(c1)C1(CCN(CCc3nc(-c4ccccc4)oc3C)CC1)OC(=O)N2
cell viability (Caco-2 [1]; 1 nM): 97% | cell viability (Caco-2 [1]; 10 nM): 91.7% | cell viability (Caco-2 [1]; 100 nM): 93.3% | cell viability (Caco-2 [1]; 1000 nM): 94.4% | cell viability (Caco-2 [1]; 10000 nM): 87.7% | cell viability (Calu-3 [2]; 1 nM): 94.9% | cell viability (Calu-3 [2]; 10 nM): 103% | cell viability (Calu-3 [2]; 100 nM): 98.1% | cell viability (Calu-3 [2]; 1000 nM): 98% | cell viability (Calu-3 [2]; 10000 nM): 85.3% | cell viability (HepG2 [3]; 1 nM): 101% | cell viability (HepG2 [3]; 10 nM): 96% | cell viability (HepG2 [3]; 100 nM): 96.7% | cell viability (HepG2 [3]; 1000 nM): 95.3% | cell viability (HepG2 [3]; 10000 nM): 75.4% | cell viability (U2OS [13]; 1 nM): 98.5% | cell viability (U2OS [13]; 10 nM): 96.5% | cell viability (U2OS [13]; 100 nM): 96.3% | cell viability (U2OS [13]; 1000 nM): 94% | cell viability (U2OS [13]; 10000 nM): 88.8% | cell viability (Vero E6 [4]; 1 nM): 92.9% | cell viability (Vero E6 [4]; 10 nM): 101% | cell viability (Vero E6 [4]; 100 nM): 96.4% | cell viability (Vero E6 [4]; 1000 nM): 94.4% | cell viability (Vero E6 [4]; 10000 nM): 74.1% | relative viability EC50 (Caco-2 [5]): > 10 µM | relative viability EC50 (Calu-3 [6]): > 10 µM | relative viability EC50 (HepG2 [7]): > 10 µM | relative viability EC50 (U2OS [14]): > 10 µM | drug sensitivity score (Caco-2 [9]): 0 | drug sensitivity score (Calu-3 [10]): 0.4 | drug sensitivity score (HepG2 [11]): 1.6 | drug sensitivity score (U2OS [15]): 0 | drug sensitivity score (Vero E6 [12]): 1.8

CCOc1ccccc1N/N=C1/C(=O)N(c2nc(-c3ccccc3)cs2)N=C1C [BAM7]
cell viability (Caco-2 [1]; 1 nM): 94.6% | cell viability (Caco-2 [1]; 10 nM): 105% | cell viability (Caco-2 [1]; 100 nM): 88.2% | cell viability (Caco-2 [1]; 1000 nM): 103% | cell viability (Caco-2 [1]; 10000 nM): 88.7% | cell viability (Calu-3 [2]; 1 nM): 96.5% | cell viability (Calu-3 [2]; 10 nM): 95.8% | cell viability (Calu-3 [2]; 100 nM): 83.7% | cell viability (Calu-3 [2]; 1000 nM): 97.3% | cell viability (Calu-3 [2]; 10000 nM): 99.6% | cell viability (HepG2 [3]; 1 nM): 106% | cell viability (HepG2 [3]; 10 nM): 96.2% | cell viability (HepG2 [3]; 100 nM): 99.1% | cell viability (HepG2 [3]; 1000 nM): 92.2% | cell viability (HepG2 [3]; 10000 nM): 82.6% | cell viability (Vero E6 [4]; 1 nM): 98.8% | cell viability (Vero E6 [4]; 10 nM): 101% | cell viability (Vero E6 [4]; 100 nM): 95.2% | cell viability (Vero E6 [4]; 1000 nM): 95.2% | cell viability (Vero E6 [4]; 10000 nM): 94.8% | relative viability EC50 (Caco-2 [5]): > 10 µM | relative viability EC50 (Calu-3 [6]): > 10 µM | relative viability EC50 (HepG2 [7]): > 10 µM | relative viability EC50 (Vero E6 [8]): > 10 µM | drug sensitivity score (Caco-2 [9]): 0 | drug sensitivity score (Calu-3 [10]): 0 | drug sensitivity score (HepG2 [11]): 0.9 | drug sensitivity score (Vero E6 [12]): 0
